The values below are quoted from earlier work in publication PMC7004151, “Synthesis and Structure‐Activity Relationships of N‐(4‐Benzamidino)‐Oxazolidinones: Potent and Selective Inhibitors of Kallikrein‐Related Peptidase 6” (Chemmedchem, 2019).

Molecules are shown by their SMILES.

In the data set the test system is KLK6. As to conditions: published KLK6 inhibitors ref 18; cited from earlier work.

In general, IC50 refers to the midpoint of a concentration-inhibition curve. For the compound `NCc1ccc(NC(=O)c2c([O-])ccc[n+]2Cc2nccn2Cc2ccccc2)cc1` [Compound 1], the IC50 was 1.8 µM.
